According to EP0190597A2, “Retro-inverso analogs of the bradykinin potentiating peptide bpp 5a” (SCLAVO S.p.A., priority 1985, dated 1986):

Target: angiotensin converting enzyme
Assay: Inhibition of angiotensin converting enzyme (method of Cushman and Cheung)
Format: biochemical, rabbit
Settings: in vitro; ratio of IC50 versus BPP5a or Glp-Lys-Phe-Ala-Pro-OH
Source text: In particular, comparative experiments carried out […] in order to evaluate the ACE inhibitory activity of the compounds of the present invention gave the results reported in following table I (IC50 represents the concentration of the test compound, in µM, which inhibits the angiotensin converting enzyme by 50%. The enzyme employed in this test has been isolated from rabbit lungs according to the method by Cushman and Cheung described in Biochem. Pharmacol. 2Q, 1637, (1971)).

Substance: Glp--Lys-gPhe-mAla-Pro-OH
- IC50 times higher than that of the natural product (BPPSa) or the corresponding uninverted peptide Glp-Lys-Phe-Ala-Pro-OH: more than 1000 times
